Data taken from patent publication US20020061862A1, “Inducible nitric oxide synthase for treatment of disease” (University of Pittsburgh of the Commonwealth System of …, priority 1992, published 2002).

Assays:
[1] = test system: sheep pulmonary artery endothelial cells (SPAEC); assay type: cell-based; details: L-NMA 0.5 mM, BH4 100 μM
[2] = test system: 3T3-iNOS cells; test: NO2- production (iNOS activity) in transfected 3T3-iNOS cells; assay type: cell-based, murine; details: MTX 12.5 μM
Procedure: Cells were passaged to 6 well plates at a density of 1×10^5 cells/well 24 h prior to transfection. For 3T3 cells, each well of cells was transfected with a mixture of 1 μg plasmid DNA and 6 μg of Lipofectamine (GIBCO) in OPTIMEM-I media for 5 h. For RSMC, a ratio of 1 μg DNA to 7 μl of Lipofectamine was used. Following the incubation period, the transfection solution was removed and normal growth medium replaced. The transfection efficiency was estimated by X-gal staining of pIEP-lacZ transfected cells. All studies were performed at 24-72 h post-transfection.
Twenty four hours following transfection, the cell medium was then replaced with fresh medium and the cells were cultured for an additional 24 h at which time the supernatants were assayed for accumulated NO2 using the Griess reaction (Geller, et al., 1993, Proc. Natl. Acad. Sci. USA: 90:522-526). Measurements were also performed in the presence of L-NMA (1 mM), BH4 (100 μM), and methotrexate (MTX 12.5 μM). The cells were lysed with 0.1 M NaOH and the protein concentration was quantified with the BCA protein assay. To assess the requirement for compression of GTPCH and iNOS in the same cell, 3T3 cells were transfected with either pIEPlacZ or pCIS-GTPCH. […] Cells were allowed to attach overnight and NO2− levels were measured 24 h later.

[3] = test system: ecNOS mRNA and protein in SPAEC; test: Northern and Western blot for ecNOS expression in SPAEC; assay type: cell-based, sheep; details: 1 mM, 6 h, versus SPAEC treated with the parent compound
Procedure: Aliquots (20 μg) of RNA were electrophoresed on a 0.9% agarose gel and blotted to GeneScreen (DuPontNEN; Boston, Mass.). After prehybridization, the membranes were hybridized to a DNA probe as described (Geller, et al., 1993, Proc. Natl. Acad. Sci. USA 90:522-526). A 2.3 kb human iNOS cDNA fragment served as the iNOS probe while a 4.1 kb human endothelial cNOS cDNA fragment served as the ecNOS probe. 18S rRNA served as a control for relative RNA loading.
The cells were lysed by three freeze-thaw cycles, and the cytosolic fraction was isolated by centrifugation at 100,000×g for 60 min at 4° C. as previously described (Luss, et al., 1994, Biochem. Biophys. Res. Comm. 204-2: 635-640). Protein concentrations were measured with the BCA protein assay (Pierce; Rockford, Ill.). For whole cell preparations, a similar procedure was performed without the centrifugation step.
Cell cytosols (100μg) were electrophoresed through an 8% SDS-polyacrylamide gel and transferred to nitrocellulose membranes (Schleicher Schuell; Keene, N.H.) as described (Laemmli, 1970, Nature 227: 680-685). […]

SMILES: CNC(=N)NCCC[C@H](N)C(=O)O [L-NMA, N^G-monomethyl-L-arginine]
- effect of agent added to culture medium on nitrogen oxide synthesis / NO2^− production of SPAEC/DFG-iNOS-Neo [1]: inhibited

SMILES: CN(Cc1cnc2nc(N)nc(N)c2n1)c1ccc(C(=O)N[C@@H](CCC(=O)O)C(=O)O)cc1 [MTX, methotrexate]
- reduction of iNOS activity recovered by BH4 supplementation ([2]; 3T3-iNOS, FIG. 23): over 5 fold
- reduction of iNOS activity ([2]; pCIS-GTPCH transfected 3T3iNOS cells): 50%

SMILES: CC(=O)N[C@H](C(=O)O)C(C)(C)SN=O [SNAP, S-nitroso-N-acetyl-penicillamine]
- increase in ecNOS mRNA [3]: 1.5 fold
